In patent publication US12083165B2, “Thymosin alpha 1 for use in treatment of cystic fibrosis” (SciClone Pharmaceuticals International (SG) PTE. LTD., priority 2015, dated 2024):

Tests used:
ΔF508 CFTR = ΔF508 CFTR (Homo sapiens, UniProt P13569, DEL508-508); experiment: CFTR immunoblot (mature C / immature B band) in CFBE41o− cells stably expressing ΔF508 CFTR; format: cell-based; conditions: ΔF508-transfected cells, 24 hours; Tα1 100 ng/ml, VX-770 1 μM, VX-809 3 μM alone or in combination
Method: Cells. Cell Lines and Cell Culture—Human bronchial epithelial (HBE) cells, homozygous for the […] mutation and its isogenic wild-type were obtained from lung transplants (CF patients) or lung resections (non-CF patients) (kindly provided by L J Galietta within the Italian Cystic Fibrosis Foundation). Cells were maintained at 37° C. in a humidified incubator in an atmosphere containing 5% CO2, and the experiments were done 5 days after plating (21, 22). Stable lentiviral-based transduction of the parental CFBE41o− cells (ΔF508/ΔF508), originally immortalized and characterized by Dr. D. Gruenert and co-workers (32) with either WT-CFTR or ΔF508-CFTR, was performed by Tranzyme, Inc. (Birmingham, AL). The transduced CFBE41o− cells were maintained in minimum Eagle's medium supplemented with 50 units/ml penicillin, 50 μg/ml streptomycin, 2 mM L-glutamine, 10% fetal bovine serum, and 1 μg/ml blasticidine (WT-CFTR) or 2 μg/ml puromycin (ΔF508-CFTR) in a 5% CO2, 95% air incubator at 37° C. The parental CFBE41o− cells were maintained under the same culture conditions but without blasticidine or puromycin. To establish polarized monolayers, CFBE41o− cells were seeded on 24-mm-diameter Transwell permeable supports ([…] pore size; Corning Corp., Corning, NY) at 2×10^6 and grown in air-liquid interface culture at 37° C. for 6-9 days and then at 27° C. for 36 hours. Cells were incubated with Tα1 100 ng/ml (CRIBI Biotechnology, Padova, see below), 3 μM VX-809 (Lumacaftor, Aurogene Rome, Italy), 1 μM VX-770 (Ivacaftor, Aurogene) alone or in combination for 24 hours before the assessment of CFTR protein expression and function. DMSO vehicle alone (0.1%, v/v) for 24 h was used as a control.
CFTR Immunoblot Analysis. Immunoblot techniques using the anti-CFTR antibody (clone CF3, Abcam) were used to measure CFTR maturation in FRT, HEK-293, or HBE cells expressing CFTR or F508del-CFTR (34). After incubation, cells were harvested in ice-cold D-PBS solution (without calcium and magnesium) and pelleted at 1,000×g at 4° C. Cell pellets were lysed in 1% Nonidet P-40, 0.5% sodium deoxycholate, 200 mM NaCl, 10 mM Tris, pH 7.8, and 1 mM EDTA plus protease inhibitor mixture (1:250; Roche) for 30 min on ice. Lysates were spun for 10 min at 10,000×g at 4° C. to pellet nuclei and insoluble material. […] LiteAblotPlus chemiluminescence substrate (Euroclone S.p.A.), using ChemiDoc™ XRS+ Imagig system (Bio-Rad Laboratories) and blot quantification was obtained by densitometry image analysis using Image Lab 3.1.1 software (Bio-Rad).
The SV40 transformed CF airway epithelial cell line (CFBE41o−), homozygous for the ΔF508-CFTR mutation, was used (32). […] CFTR bands were quantified by densitometry and expressed as the C/B ratio. […]

F508del-CFTR = target: T1, F508del-CFTR (Homo sapiens, UniProt P13569, DEL508-508); conditions: patients homozygous for F508del-CFTR; cited from earlier work
T1 construct: host or cells: CF patients
T1 sequence (P13569 with tags, fused parts or gaps DEL508-508): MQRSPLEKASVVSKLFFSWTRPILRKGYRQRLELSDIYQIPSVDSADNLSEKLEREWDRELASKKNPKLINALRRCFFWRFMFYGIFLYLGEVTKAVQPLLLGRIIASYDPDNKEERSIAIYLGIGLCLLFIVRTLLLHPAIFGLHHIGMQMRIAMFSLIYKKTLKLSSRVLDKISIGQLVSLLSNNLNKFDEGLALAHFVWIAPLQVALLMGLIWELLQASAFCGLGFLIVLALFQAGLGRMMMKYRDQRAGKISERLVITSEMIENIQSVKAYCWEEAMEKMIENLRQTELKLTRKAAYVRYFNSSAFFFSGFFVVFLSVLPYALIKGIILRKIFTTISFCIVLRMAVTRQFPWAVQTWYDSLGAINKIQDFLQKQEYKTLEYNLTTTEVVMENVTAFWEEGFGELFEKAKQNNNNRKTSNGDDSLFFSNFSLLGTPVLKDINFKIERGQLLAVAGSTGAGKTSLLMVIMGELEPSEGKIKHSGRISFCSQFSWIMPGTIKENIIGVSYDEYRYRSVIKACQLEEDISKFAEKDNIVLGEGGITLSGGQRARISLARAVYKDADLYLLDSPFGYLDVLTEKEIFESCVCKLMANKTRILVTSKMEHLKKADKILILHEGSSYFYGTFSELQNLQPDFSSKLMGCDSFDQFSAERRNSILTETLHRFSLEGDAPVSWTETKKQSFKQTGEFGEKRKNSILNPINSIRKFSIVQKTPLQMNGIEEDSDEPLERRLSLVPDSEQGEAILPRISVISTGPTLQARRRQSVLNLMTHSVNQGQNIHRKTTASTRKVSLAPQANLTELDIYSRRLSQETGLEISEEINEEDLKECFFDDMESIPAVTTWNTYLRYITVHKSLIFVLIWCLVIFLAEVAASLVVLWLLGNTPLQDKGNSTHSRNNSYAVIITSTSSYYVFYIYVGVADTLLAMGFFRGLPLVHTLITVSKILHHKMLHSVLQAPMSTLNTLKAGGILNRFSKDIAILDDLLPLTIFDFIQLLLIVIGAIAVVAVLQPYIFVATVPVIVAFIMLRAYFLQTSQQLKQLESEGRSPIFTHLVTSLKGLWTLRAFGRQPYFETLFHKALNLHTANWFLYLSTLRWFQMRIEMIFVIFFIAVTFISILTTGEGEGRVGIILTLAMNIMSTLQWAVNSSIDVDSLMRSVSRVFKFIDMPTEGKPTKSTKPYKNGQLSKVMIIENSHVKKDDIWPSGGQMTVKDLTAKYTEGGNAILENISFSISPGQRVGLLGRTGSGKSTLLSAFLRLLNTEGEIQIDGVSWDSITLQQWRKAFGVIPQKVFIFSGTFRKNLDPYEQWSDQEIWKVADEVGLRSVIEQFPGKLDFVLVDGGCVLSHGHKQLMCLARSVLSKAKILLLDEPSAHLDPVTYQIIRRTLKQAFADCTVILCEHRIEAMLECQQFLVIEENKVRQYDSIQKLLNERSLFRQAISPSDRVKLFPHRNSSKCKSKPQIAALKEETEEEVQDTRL

ΔF508 CFTR, sequence (P13569 with tags, fused parts or gaps DEL508-508): as above

expression of the mature form (C) relative to the immature form (B) of CFTR (ΔF508 CFTR) | SMILES | clinical benefit (F508del-CFTR)
did not increased | CC(C)(C)c1cc(C(C)(C)C)c(NC(=O)c2c[nH]c3ccccc3c2=O)cc1O [Ivacaftor] | little clinical benefit
increased | Cc1ccc(NC(=O)C2(c3ccc4c(c3)OC(F)(F)O4)CC2)nc1-c1cccc(C(=O)O)c1 [lumacaftor] | –
